Laboratory results published in ChEMBL document CHEMBL6182860, “Discovery and rational optimization of 2, 2'-((1H-indole-2,3-diyl) bis (thio))diacetamide as novel SARS-CoV-2 RdRp inhibitors” (Bioorg Med Chem, 2025).
pEC50: −log10 of the molar value.

Legend:
[1] = Cytotoxicity against HEK293T cells assessed as reduction in cell viability incubated for 24 hrs by CCK-8 assay; type: toxicity, cell-based, HEK-293T; details: human
[2] = molecular target: Replicase polyprotein 1ab (Severe acute respiratory syndrome coronavirus 2) (UniProt P0DTD1); assay: Inhibition of SARS-Cov-2 RdRp expressed in HEK293T cells co-transfected with pCoV-Gluc and pCOVID-nsp12/7/8 at 10 uM incubated for 24 hrs by microplate luminometric analysis relative to control; type: cell-based
[3] = molecular target: T1, Replicase polyprotein 1ab (Severe acute respiratory syndrome coronavirus 2, UniProt P0DTD1); assay: Inhibition of SARS-Cov-2 RdRp expressed in HEK293T cells co-transfected with pCoV-Gluc and pCOVID-nsp12/7/8 incubated for 24 hrs by microplate luminometric analysis; type: cell-based
[4] = tested on: Human coronavirus NL63; assay: Antiviral activity against HCoV NL63 infected in rhesus monkey LLC-MK2 cells assessed as inhibition of viral replication by measuring maximal inhibition at 50 uM pre-infected for 1 hrs followed by compound administration and measured 120 hrs post-infection by MTS assay relative to control; type: functional; details: time 119 hrs
[5] = molecular target: T1, Replicase polyprotein 1ab; assay: Inhibition of SARS-Cov-2 RdRp expressed in HEK293T cells co-transfected with pCoV-Gluc and pCOVID-nsp12/7/8/10/14 assessed as tolerance to proof reading activity of nsp14/10 exonuclease incubated for 24 hrs by microplate luminometric analysis; type: cell-based
[6] = tested on: Human coronavirus OC43; assay: Antiviral activity against HCoV OC43 infected in human HCT-8 cells assessed as inhibition of viral replication by measuring maximal inhibition at 50 uM pre-infected for 1 hrs followed by compound administration and measured 120 hrs post-infection by MTS assay relative to control; type: functional; details: time 119 hrs
[7] = tested on: Human coronavirus NL63; assay: Antiviral activity against HCoV NL63 infected in rhesus monkey LLC-MK2 cells assessed as inhibition of viral replication pre-infected for 1 hrs followed by compound administration and measured 120 hrs post-infection by MTS assay; type: functional, organism-based; details: for Activity: time 119.0 hrs
[8] = molecular target: Replicase polyprotein 1ab (Severe acute respiratory syndrome coronavirus 2) (UniProt P0DTD1); assay: Inhibition of SARS-Cov-2 RdRp expressed in HEK293T cells co-transfected with pCoV-Gluc and pCOVID-nsp12/7/8 assessed as reduction in viral positive strand Gluc-RNA level incubated for 24 hrs by qRT-PCR analysis; type: cell-based
[9] = tested on: Human coronavirus OC43; assay: Antiviral activity against HCoV OC43 infected in human HCT-8 cells assessed as inhibition of viral replication pre-infected for 1 hrs followed by compound administration and measured 120 hrs post-infection by MTS assay; type: functional, organism-based; details: for pEC50: Betacoronavirus 1, HCT-8; for Activity: time 119.0 hrs
[10] = molecular target: Replicase polyprotein 1ab (Severe acute respiratory syndrome coronavirus 2) (UniProt P0DTD1); assay: Inhibition of SARS-Cov-2 RdRp expressed in HEK293T cells co-transfected with pCoV-Gluc and pCOVID-nsp12/7/8 at 0.5 to 2 uM incubated for 24 hrs by microplate luminometric analysis; type: cell-based; details: dose 0.5-2 µM
[11] = molecular target: Replicase polyprotein 1ab (Severe acute respiratory syndrome coronavirus 2) (UniProt P0DTD1); assay: Inhibition of SARS-Cov-2 RdRp expressed in HEK293T cells co-transfected with pCoV-Gluc and pCOVID-nsp12/7/8 assessed as reduction in viral negative strand Gluc-RNA level incubated for 24 hrs by qRT-PCR analysis; type: cell-based
[12] = molecular target: Replicase polyprotein 1ab (Severe acute respiratory syndrome coronavirus 2) (UniProt P0DTD1); assay: Inhibition of SARS-Cov-2 RdRp expressed in HEK293T cells co-transfected with pCoV-Gluc and pCOVID-nsp12/7/8 at 3 uM incubated for 24 hrs by microplate luminometric analysis; type: cell-based

SMILES | CC50 at 24 h [1] [µM] | inhibition [2] [%] | pEC50 [3] | further results
Cc1ccccc1CNC(=O)CSc1[nH]c2ccccc2c1SCC(=O)Nc1ccc(Cl)c(Cl)c1 | > 100 | 94.4 | 5.61 | 
O=C(CSc1[nH]c2ccccc2c1SCC(=O)Nc1ccc(Cl)c(Cl)c1)NCc1ccccc1Cl | > 100 | 82 | 5.63 | 
CCOc1ccccc1CNC(=O)CSc1[nH]c2ccccc2c1SCC(=O)Nc1ccccc1OCC |  | 39.2 |  | 
O=C(CSc1[nH]c2ccccc2c1SCC(=O)Nc1ccc(Cl)c(Cl)c1)NCc1cccc(Cl)c1 | > 100 | 85.1 | 5.67 | 
CCOc1ccccc1NC(=O)CSc1c(SCC(=O)NCc2ccc(C)cc2)[nH]c2ccccc12 | > 100 | 88.3 | 5.56 | 
CCOc1ccccc1NC(=O)CSc1c(SCC(=O)NCc2cccc(Cl)c2)[nH]c2ccccc12 | > 100 | 94.8 | 6.24 | Imax [4]: 80%; pEC50 [5]: 6.07; Imax [6]: 90%; pEC50 [7]: 5.39; Activity [7]: Dose-dependent-effect; inhibition ([8]; dose 5-10 µM, time 24.0 hrs): Dose-dependent-effect; pEC50 [9]: 5.89; Activity [9]: Dose-dependent-effect; inhibition [10]: Active; Better Inhibitory Effect Than Remdesivir Observed; inhibition ([11]; dose 5-10 µM, time 24.0 hrs): Dose-dependent-effect
O=C(CSc1[nH]c2ccccc2c1SCC(=O)Nc1ccc(Cl)c(Cl)c1)NCc1ccccc1F | 78.6 | 93.6 | 5.84 | inhibition [12]: Active; Maximum Inhibitory Effect Observed; pEC50 [5]: 5.74; inhibition [8]: Dose-dependent-effect; Inhibition Effect Were Twice As Potent As Remdesivir At 10 Um; inhibition [11]: Dose-dependent-effect; Inhibition Effect Were Twice As Potent As Remdesivir At 10 Um
O=C(CSc1[nH]c2ccccc2c1SCC(=O)Nc1ccc(Cl)c(Cl)c1)Nc1ccc(Cl)c(Cl)c1 | 95.5 | 88.1 | 5.61 | 
CCOc1ccccc1NC(=O)CSc1c(SCC(=O)NCc2ccccc2OC)[nH]c2ccccc12 | > 100 | 73.8 | 5.63 | 
CCOc1ccccc1NC(=O)CSc1c(SCC(=O)NCc2ccccc2C)[nH]c2ccccc12 | > 100 | 77.5 | 5.59 | 
CCOc1ccccc1NC(=O)CSc1c(SCC(=O)NCc2ccc(Cl)c(Cl)c2)[nH]c2ccccc12 | > 100 | 84.8 | 5.59 | 
O=C(CSc1[nH]c2ccccc2c1SCC(=O)Nc1ccc(Cl)c(Cl)c1)NCc1ccccc1 | 87.1 | 97 | 5.50 | 
CCOc1ccccc1NC(=O)CSc1c[nH]c2ccccc12 |  | 4 |  | 
Cc1cccc(CNC(=O)CSc2[nH]c3ccccc3c2SCC(=O)Nc2ccc(Cl)c(Cl)c2)c1 | 90.3 | 96 | 5.81 | inhibition [12]: Active; Maximum Inhibitory Effect Observed; pEC50 [5]: 5.76; inhibition [8]: Dose-dependent-effect; Inhibition Effect Were Twice As Potent As Remdesivir At 10 Um; inhibition [11]: Dose-dependent-effect; Inhibition Effect Were Twice As Potent As Remdesivir At 10 Um
COc1ccccc1CNC(=O)CSc1[nH]c2ccccc2c1SCC(=O)Nc1ccc(Cl)c(Cl)c1 | > 100 | 95.5 | 5.70 | 
CCOc1ccccc1CNC(=O)CSc1[nH]c2ccccc2c1SCC(=O)Nc1ccc(Cl)c(Cl)c1 | 72.5 | 92 | 5.84 | inhibition [12]: Active; Maximum Inhibitory Effect Observed; pEC50 [5]: 5.77; inhibition ([8]; dose 5-10 µM, time 24.0 hrs): Dose-dependent-effect; inhibition ([11]; dose 5-10 µM, time 24.0 hrs): Dose-dependent-effect
CCOc1ccccc1NC(=O)CSc1c(SCC(=O)NCc2ccc(Cl)cc2)[nH]c2ccccc12 | > 100 | 95.4 | 5.75 | 
CCOc1ccccc1NC(=O)CSc1c(SCC(=O)NCc2cccc(C)c2)[nH]c2ccccc12 |  | 40.2 |  | 
CCOc1ccccc1NC(=O)CSc1c(SCC(=O)NCc2ccccc2F)[nH]c2ccccc12 | > 100 | 89.5 | 6.15 | Imax [4]: 80%; pEC50 [5]: 5.97; Imax [6]: 90%; pEC50 [7]: 4.87; Activity [7]: Dose-dependent-effect; inhibition ([8]; dose 5-10 µM, time 24.0 hrs): Dose-dependent-effect; pEC50 [9]: 5.82; Activity [9]: Dose-dependent-effect; inhibition [10]: Active; Better Inhibitory Effect Than Remdesivir Observed; inhibition ([11]; dose 5-10 µM, time 24.0 hrs): Dose-dependent-effect
O=C(CSc1[nH]c2ccccc2c1SCC(=O)Nc1ccc(Cl)c(Cl)c1)NCc1ccc(Cl)c(Cl)c1 | > 100 | 89.1 | 5.69 | 
CCOc1ccccc1NC(=O)CSc1c(SCC(=O)NCc2ccc(-c3ccccc3)cc2)[nH]c2ccccc12 |  | 39.7 |  | 
O=C(CSc1[nH]c2ccccc2c1SCC(=O)Nc1ccc(Cl)c(Cl)c1)NCc1ccc(-c2ccccc2)cc1 | 75.1 | 93.8 | 5.72 | 
CCC(CC)COC(=O)[C@H](C)N[P@](=O)(OC[C@H]1O[C@@](C#N)(c2ccc3c(N)ncnn23)[C@H](O)[C@@H]1O)Oc1ccccc1 | > 100 | 87 |  | pEC50 [7]: 5.47; inhibition ([8]; dose 5-10 µM, time 24.0 hrs): Dose-dependent-effect; pEC50 [9]: 5.75; inhibition ([11]; dose 5-10 µM, time 24.0 hrs): Dose-dependent-effect
CCOc1ccccc1NC(=O)CSc1c(SCC(=O)NCc2ccccc2Cl)[nH]c2ccccc12 | > 100 | 80.8 | 5.59 | 
CCOc1ccccc1NC(=O)CSc1[nH]c2ccccc2c1SCC(=O)Nc1ccccc1OCC |  | 48.5 |  | 
Cc1ccc(CNC(=O)CSc2[nH]c3ccccc3c2SCC(=O)Nc2ccc(Cl)c(Cl)c2)cc1 | > 100 | 91.9 | 5.80 | 
O=C(CSc1[nH]c2ccccc2c1SCC(=O)Nc1ccc(Cl)c(Cl)c1)NCc1ccc(Cl)cc1 | > 100 | 96.6 | 5.73 | 
O=C(CSc1c[nH]c2ccccc12)Nc1ccc(Cl)c(Cl)c1 |  | 36 |  | 
CCOc1ccccc1NC(=O)CSc1c(SCC(=O)NCc2ccccc2)[nH]c2ccccc12 | > 100 | 89.2 | 5.67 | 
